Laboratory results: PubChem BioAssay (NCI)
Where “and” joins values, the source holds several entries; their conditions need not be identical. Equal values may be shown once.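 Method: 48-hour compound exposure of cells in 96-well plates, five concentrations, linear interpolation of endpoints. The concentration for 50% growth inhibition is given as GI50. At the TGI there is no net growth.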

System: MDA-MB-468 breast
Test: NCI-60 cell line screen, 48 h

SMILES	GI50	TGI
CCCC(=O)NC(c1ccc2c(c1)OC(F)(F)O2)c1cc(C)c2cccnc2c1O (configuration not stated)	0.37 µM	2.21 µM
COc1cc(/C=C/c2cc(/C=C/c3ccc(O)c(OC)c3)n(C(=O)Nc3ccccc3Cl)n2)ccc1O	0.264 µM	0.748 µM
CC(C)(C)CC(C)(C)c1ccc(O)c(Cc2ccc(Cl)cc2Cl)c1	1.66 µM	3.08 µM
CC(C)[C@@](O)(c1ccc2cc(OC(F)F)c(OC(F)F)cc2c1)c1cn[nH]n1	12.9 µM	47.4 µM
COc1ccc(NC2=C(I)C(=O)c3ncccc3C2=O)cc1	1.35 µM	2.94 µM
CC(C)(c1ccccc1)c1cc(O)c(C(C)(C)c2ccccc2)cc1O	0.376 µM	3.72 µM
Cn1cc(-c2nc(-c3c[nH]c4ncccc34)cs2)c2ccccc21	0.314 µM	0.82 µM
Cc1ccc(C=C2C(Cl)=C(Cl)C(Cl)=C2Cl)cc1	0.189 µM	0.573 µM
CCc1cnn2c(NCc3ccc[n+]([O-])c3)cc(N3CCCC[C@H]3CCO)nc12	< 0.01 µM and 0.00221 µM	< 0.01 µM and 0.00588 µM
CN1CCN(c2ccc(Nc3nc(NCCCNS(=O)(=O)c4ccccc4)c4sccc4n3)cc2)CC1	11.8 µM	26.4 µM
Cc1ccc2cccc(OC(=O)Nc3cccc(C(F)(F)F)c3)c2n1	3.65 µM	12.9 µM
CC(C)(C)c1cc(/C=N/NC(=O)c2ccccc2NC(=O)c2cccs2)c(O)c(C(C)(C)C)c1	0.386 µM	20.5 µM
COCCOC1=CC(=O)c2c(O)ccc(O)c2C1=O	1.27 µM	2.78 µM
COC(=O)c1ccccc1CC1Cc2cc3c(cc2C1=O)CCC3 (configuration not stated)	10.6 µM	42.1 µM
COc1cc(N2C(=O)[C@H](c3ccccc3)C2c2ccc(SC)cc2)cc(OC)c1OC (some centres not stated)	0.0271 µM	0.0929 µM
O=C1CC(c2ccccc2)Cc2nc3ccc(Br)cc3cc21 (configuration not stated)	2.23 µM	7.94 µM
O=c1cnnc(N/N=C/c2ccccc2O)[nH]1	0.265 µM	3.32 µM
NC(=S)N/N=C1\c2ccccc2-c2c(F)c(F)c(F)c(F)c21	2.49 µM	5.14 µM
COc1cc(CNCCN2C(=O)c3ccc4c5c(ccc(c35)C2=O)C(=O)N(CCNCc2cc(OC)c(OC)c(OC)c2)C4=O)cc(OC)c1OC	0.123 µM	0.323 µM
COC(=O)c1cc2oc(/C=C3/SC(=S)N(N)C3=O)cc2n1Cc1ccccc1	74.4 µM	> 100 µM
CC1(C)N=C(N)N=C(N)N1c1ccc(OCCCNC(=O)Nc2cccc(S(=O)(=O)F)c2)c(Cl)c1	15.7 µM	> 100 µM
COC1=C(C)C(=O)c2c(c(CCCl)c3n2CCC3OC(C)=O)C1=O (configuration not stated)	5.01 µM	22.5 µM
Oc1c(Cl)cc(Cl)cc1/C=N/Nc1nnc(N/N=C/c2cc(Cl)cc(Cl)c2O)c2ccccc12	0.337 µM	1.88 µM

SMILES	GI50	TGI
Clc1cc(Cl)c(OCCCCCCN2CCNCC2)c(Cl)c1	2.14 µM	4.61 µM
O=Nc1c(-c2c(O)[nH]c3cc(Br)ccc23)[nH]c2ccccc12	2 µM	4.93 µM
COc1cc(/C=C2\CCC/C(=C\c3ccc(O)c(OC)c3)C2=O)ccc1O	1.46 µM	3.48 µM
C=CC(=O)N1C[C@@H]2CCOc3c(Cl)c(-c4c(O)cccc4F)c(F)c4ncnc(c34)N2C[C@H]1C	2.33 µM	10.4 µM
COC(=O)[C@]12CC[C@@H](C)[C@H](C)[C@@H]1C1=CC[C@@H]3[C@@]4(C)C[C@@H](OC(=O)/C=C/c5ccccc5)[C@H](O)[C@@](C)(CO)[C@@H]4[C@H](O)C[C@@]3(C)[C@]1(C)CC2	2.54 µM	8.94 µM
C#Cc1cccc(Nc2ncnc3ccc(OCCCCNCCS(C)(=O)=O)cc23)c1	0.094 µM	0.666 µM
O=C(C=P(c1ccccc1)(c1ccccc1)c1ccccc1)CCl	0.268 µM	1.28 µM
C#CC(=O)Nc1cccc2c1cc(C)n2-c1nc2c(c(NCc3ccccc3)n1)CCCC2	0.211 µM	0.596 µM
N#Cc1c(NC(=O)c2ccc(F)cc2)sc2c1CCCC2	> 25 µM	> 25 µM
Cn1cc(C2=C(c3cn(-c4ccccc4)c4ccccc34)C(=O)NC2=O)c2ccccc21	7.58 µM	> 25 µM
CN(C)CCCSc1ccccc1NC1=C(Cl)C(=O)C(Nc2ccccc2SCCCN(C)C)=C(Cl)C1=O	1.52 µM	3.22 µM
CC(=O)CC/C=C(\C)[C@H](O)[C@H](C)C(=O)O[C@H]1C[C@H](C)C=C2C=C[C@@]3(C)O[C@@H](O)CC(=O)[C@]3(C)[C@H]21	0.454 µM	2 µM
COc1ccc(C(=NN=C(N)N)c2ccc(OC)cc2)cc1	1.71 µM	4.71 µM
O=C1c2cccnc2C(=O)c2c1c(C(=O)OCCN1CCCCC1)c1ccccn21	0.869 µM	2.84 µM
COc1cccc(-c2cc(=O)c3cc(N4CCOCC4)ccc3[nH]2)c1	0.927 µM	> 100 µM
CN(C)CC(=O)Nc1ccc2ncnc(Nc3ccc(Oc4cccc(C(F)(F)F)c4)c(Cl)c3)c2c1	1.28 µM	3.23 µM
CC1(C)N=C(N)N=C(N)N1c1ccc(Cl)cc1	0.873 µM	> 100 µM
COc1ccc(C2CC(c3ccc(Nc4ccnc5cc(Cl)ccc45)cc3)=NN2C=O)cc1 (configuration not stated)	1 µM	6.84 µM
CC(C)(C)c1cc(NC(=O)Nc2ccc(-c3cn4c(n3)sc3cc(OCCN5CCOCC5)ccc34)cc2)no1	3.64 µM and 2.55 µM and > 10 µM	12.2 µM and 14.2 µM and > 10 µM
COc1ccc(/C=C2\COc3ccc(O)c(O)c3C2=O)c(OC)c1OC	2.18 µM	6.28 µM
O=C(c1ccc(C(F)(F)F)c(Cl)c1)N(Cc1ccc(Cl)cc1)c1ccc(-c2cc(C(F)(F)F)[nH]n2)c(O)c1	0.928 µM	3.91 µM
COc1ccc(CCN(CC(=O)N(CC(N)=O)C2CCC[C@@H]2OCc2ccccc2)C(=O)CN(C(=O)CN(CCc2ccc(Cl)cc2)C(=O)CN(C(=O)CN(C)Cc2ccccc2F)[C@H](C)C2CCCCC2)[C@H](C)C2CCCCC2)cc1OC (some centres not stated)	0.941 µM	4.2 µM
Cn1c(=O)nc2n(-c3ccc(Cl)cc3)c3cc(Cl)ccc3nc-2c1=O	1.59 µM	3.07 µM
